Values of other authors as cited in PMC3086271 (Biochemical Journal, 2011).
pKi: −log10 of the molar value. Like-named read-outs stand apart in the source and are kept apart here.

How the values were obtained:
[1] = tested on: mean arterial blood pressure; details: spontaneous hypertensive rat, intravenous, 10 mg/kg of body weight
[2] = biological target: C-ACE of human somatic ACE; details: read-out: Ki for C-ACE
[3] = biological target: N-ACE of human somatic ACE; details: read-out: Ki for N-ACE

In the case of `O=C(N[C@@H](Cc1ccccc1)P(=O)(O)CC(Cc1cc(-c2ccccc2)no1)C(=O)N[C@@H](Cc1ccc(O)cc1)C(=O)O)OCc1ccccc1` (stereo partly drawn) [FII, (2S)-2-({3[hydroxyl(2-phenyl-(1R)-1-{[(benzyloxy)carbonyl]-amino}ethyl)phosphinyl]-2-[(3-phenylisoxazol-5-yl)methyl]-1-oxo-propyl}amino)-3-(4-hydroxy-phenyl) propanoic acid], the “lowering of mean arterial blood pressure as compared with controls” value [1] is given as 24±2 mmHg.

In the case of `O=C(N[C@@H](Cc1ccccc1)P(=O)(O)C1CCCC1C(=O)N[C@@H](Cc1c[nH]c2ccccc12)C(=O)O)OCc1ccccc1` (some centres unmarked) [RXPA380], the pKi ([2]; C-ACE-specific phosphinic inhibitor) is given as 8.52 and the pKi [3] is given as 5.60.

In the case of `NCCCC[C@H](N[C@@H](CCc1ccccc1)C(=O)O)C(=O)N1CCC[C@H]1C(=O)O` [lisinopril], the pKi ([2]; C-ACE of human somatic ACE) is listed as 8.62 and the pKi ([3]; N-ACE of human somatic ACE) is listed as 7.36.
